Numbers after ± are expanded uncertainties.
Assay: wn = mass fraction of the nth substance listed
Details: 101 kPa, Liquid; for speed of sound: Vibrating Tube; for mass density: Vibrating tube method

O=C[C@H](O)[C@@H](O)[C@H](O)[C@H](O)CO [D-glucose] + O
Details | mass density, 288.15 K [kg/m3] | mass density, 293.15 K [kg/m3] | mass density, 298.15 K [kg/m3] | mass density, 303.15 K [kg/m3] | mass density, 308.15 K [kg/m3] | speed of sound, 288.15 K [m/s] | speed of sound, 293.15 K [m/s] | speed of sound, 298.15 K [m/s] | speed of sound, 303.15 K [m/s] | speed of sound, 308.15 K [m/s]
w1 = 0.0206 | – | 1006.08 ± 0.047 | 1004.86 ± 0.047 | 1003.41 ± 0.046 | 1001.75 ± 0.045 | 1475.6 ± 3.3 | – | – | 1517.3 ± 3.3 | 1527 ± 3.3
w1 = 0.0396 | 1014.53 ± 0.061 | 1013.52 ± 0.06 | 1012.25 ± 0.06 | 1010.76 ± 0.059 | – | 1482.2 ± 3.3 | 1497.7 ± 3.3 | 1511.3 ± 3.3 | 1523 ± 3.3 | 1533 ± 3.3
w1 = 0.0591 | 1022.21 ± 0.079 | 1021.13 ± 0.079 | 1019.81 ± 0.078 | 1018.27 ± 0.077 | 1016.54 ± 0.076 | 1490 ± 3.3 | 1505.1 ± 3.3 | 1518.4 ± 3.3 | 1529.9 ± 3.3 | 1539.5 ± 3.3
